We go through eleven compounds from ChEMBL document CHEMBL3991601, “The target landscape of clinical kinase drugs” (Science, 2017).

Activity calls are given as the source filed them.

For test [1], the target named is Serine/threonine-protein kinase 24 (Homo sapiens, UniProt Q9Y6E0).
Test [2] concerns the target Cyclin-dependent kinase 10 (Homo sapiens, UniProt Q15131).
Test [3] has as its target Dual specificity testis-specific protein kinase 2 (Homo sapiens, UniProt Q96S53).
Test [4] addresses Uncharacterized aarF domain-containing protein kinase 5 (Homo sapiens, UniProt Q3MIX3).
The target of test [5] is Nucleoside diphosphate kinase B (Homo sapiens, UniProt P22392).
Test [6] concerns the target T1, UMP-CMP kinase (Homo sapiens, UniProt P30085).
T1 sequence (P30085 whole entry): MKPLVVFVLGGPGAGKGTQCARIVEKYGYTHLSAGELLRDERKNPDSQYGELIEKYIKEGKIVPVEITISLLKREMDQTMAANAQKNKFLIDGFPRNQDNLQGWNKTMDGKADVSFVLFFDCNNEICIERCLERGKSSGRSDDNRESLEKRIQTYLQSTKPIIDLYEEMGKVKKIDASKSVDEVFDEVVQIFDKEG

In test [7] the target is Activin receptor type-1-like (Homo sapiens, UniProt P37023).
The target in test [8] is Serine/threonine-protein kinase PLK1 (Homo sapiens, UniProt P53350).
For test [9], the target named is ALK tyrosine kinase receptor (Homo sapiens, UniProt Q9UM73). The format is subcellular, K-562, COLO 205, SK-N-BE(2) and MV-4-11, Cell lysate. Conditions: read-out: Kd apparent.
Test [10] addresses Choline-phosphate cytidylyltransferase A (Homo sapiens, UniProt P49585).
The target of test [11] is Misshapen-like kinase 1 (Homo sapiens, UniProt Q8N4C8).
Test [12] concerns the target Serine/threonine-protein kinase 38 (Homo sapiens, UniProt Q15208).
Test [13] deals with Dual specificity protein kinase CLK3 (Homo sapiens, UniProt P49761). The format is subcellular, K-562, COLO 205, SK-N-BE(2) and MV-4-11, Cell lysate. The following applies: read-out: Kd apparent.
The target of test [14] is Tyrosine-protein kinase JAK2 (Homo sapiens, UniProt O60674).
In test [15] the target is Eukaryotic peptide chain release factor GTP-binding subunit ERF3B (Homo sapiens, UniProt Q8IYD1).
In test [16] the target is Dual specificity protein kinase CLK4 (Homo sapiens, UniProt Q9HAZ1).
Test [17] concerns the target Tyrosine-protein kinase Fgr (Homo sapiens, UniProt P09769).
Test [18] concerns the target T2, Protein kinase C zeta type (Homo sapiens, UniProt Q05513).
T2 sequence (Q05513 whole entry): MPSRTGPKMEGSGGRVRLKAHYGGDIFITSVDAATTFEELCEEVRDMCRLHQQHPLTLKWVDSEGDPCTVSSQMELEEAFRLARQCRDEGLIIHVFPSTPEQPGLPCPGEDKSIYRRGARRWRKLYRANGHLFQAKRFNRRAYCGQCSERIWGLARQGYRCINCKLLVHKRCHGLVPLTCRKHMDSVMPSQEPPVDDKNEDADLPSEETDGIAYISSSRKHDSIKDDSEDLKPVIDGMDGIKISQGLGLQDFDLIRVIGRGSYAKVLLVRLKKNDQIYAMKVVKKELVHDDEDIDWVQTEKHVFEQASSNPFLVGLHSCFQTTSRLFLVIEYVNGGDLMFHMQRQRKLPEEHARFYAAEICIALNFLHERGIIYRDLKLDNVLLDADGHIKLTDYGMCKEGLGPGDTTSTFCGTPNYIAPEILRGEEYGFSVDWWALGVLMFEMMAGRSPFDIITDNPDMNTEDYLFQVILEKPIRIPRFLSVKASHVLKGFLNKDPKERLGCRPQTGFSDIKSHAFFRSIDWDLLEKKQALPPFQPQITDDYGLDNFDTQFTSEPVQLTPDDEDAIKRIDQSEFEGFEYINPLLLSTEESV

In test [19] the target is Ras-related C3 botulinum toxin substrate 1 (Homo sapiens, UniProt P63000).
Further: in the data inactive means no Kd found up to 30 µM.

Serine/threonine-protein kinase PLK1, sequence (P53350 whole entry): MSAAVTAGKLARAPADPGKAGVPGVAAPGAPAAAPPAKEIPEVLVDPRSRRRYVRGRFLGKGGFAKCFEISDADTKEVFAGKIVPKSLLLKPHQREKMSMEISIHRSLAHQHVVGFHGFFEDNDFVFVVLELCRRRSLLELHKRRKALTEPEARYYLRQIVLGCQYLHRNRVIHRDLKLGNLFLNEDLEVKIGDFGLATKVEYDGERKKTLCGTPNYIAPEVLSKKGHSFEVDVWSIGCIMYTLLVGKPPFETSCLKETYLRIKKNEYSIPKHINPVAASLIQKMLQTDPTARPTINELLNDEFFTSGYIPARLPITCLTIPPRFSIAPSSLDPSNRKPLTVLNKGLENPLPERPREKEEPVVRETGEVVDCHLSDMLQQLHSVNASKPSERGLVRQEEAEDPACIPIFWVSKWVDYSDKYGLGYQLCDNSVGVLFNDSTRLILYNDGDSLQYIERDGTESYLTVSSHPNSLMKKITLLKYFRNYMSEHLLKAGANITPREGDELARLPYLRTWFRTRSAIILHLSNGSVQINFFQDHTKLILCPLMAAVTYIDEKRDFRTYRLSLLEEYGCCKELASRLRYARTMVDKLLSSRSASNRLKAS
Tyrosine-protein kinase JAK2, sequence (O60674 whole entry): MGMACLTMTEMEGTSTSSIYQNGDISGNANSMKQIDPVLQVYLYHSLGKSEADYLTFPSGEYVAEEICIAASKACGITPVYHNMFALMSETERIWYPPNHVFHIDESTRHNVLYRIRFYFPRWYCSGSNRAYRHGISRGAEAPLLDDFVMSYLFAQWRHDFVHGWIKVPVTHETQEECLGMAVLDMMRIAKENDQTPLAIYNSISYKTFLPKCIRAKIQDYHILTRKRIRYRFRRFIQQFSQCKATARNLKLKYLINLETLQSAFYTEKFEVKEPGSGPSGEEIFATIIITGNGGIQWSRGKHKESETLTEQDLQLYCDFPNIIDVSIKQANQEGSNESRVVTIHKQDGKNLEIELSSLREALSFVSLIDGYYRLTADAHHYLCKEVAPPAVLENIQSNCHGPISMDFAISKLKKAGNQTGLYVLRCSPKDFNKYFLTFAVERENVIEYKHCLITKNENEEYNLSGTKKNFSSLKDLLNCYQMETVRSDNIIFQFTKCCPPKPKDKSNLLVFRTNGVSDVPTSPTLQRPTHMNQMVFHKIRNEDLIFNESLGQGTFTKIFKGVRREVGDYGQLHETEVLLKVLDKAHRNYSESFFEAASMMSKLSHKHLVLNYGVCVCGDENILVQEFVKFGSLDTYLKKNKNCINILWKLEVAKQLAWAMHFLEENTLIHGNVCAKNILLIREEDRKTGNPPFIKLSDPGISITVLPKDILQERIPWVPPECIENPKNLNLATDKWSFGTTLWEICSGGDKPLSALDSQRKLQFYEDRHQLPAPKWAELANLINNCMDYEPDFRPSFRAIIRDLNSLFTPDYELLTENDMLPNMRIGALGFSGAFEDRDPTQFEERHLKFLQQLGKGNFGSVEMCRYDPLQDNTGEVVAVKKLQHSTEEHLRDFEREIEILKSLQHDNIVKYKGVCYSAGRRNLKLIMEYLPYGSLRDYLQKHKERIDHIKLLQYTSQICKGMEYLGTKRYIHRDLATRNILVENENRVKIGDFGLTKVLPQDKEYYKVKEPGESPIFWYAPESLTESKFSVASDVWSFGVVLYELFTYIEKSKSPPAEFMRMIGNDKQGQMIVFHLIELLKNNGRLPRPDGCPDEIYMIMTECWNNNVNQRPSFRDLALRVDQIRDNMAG
Dual specificity protein kinase CLK4, sequence (Q9HAZ1 whole entry): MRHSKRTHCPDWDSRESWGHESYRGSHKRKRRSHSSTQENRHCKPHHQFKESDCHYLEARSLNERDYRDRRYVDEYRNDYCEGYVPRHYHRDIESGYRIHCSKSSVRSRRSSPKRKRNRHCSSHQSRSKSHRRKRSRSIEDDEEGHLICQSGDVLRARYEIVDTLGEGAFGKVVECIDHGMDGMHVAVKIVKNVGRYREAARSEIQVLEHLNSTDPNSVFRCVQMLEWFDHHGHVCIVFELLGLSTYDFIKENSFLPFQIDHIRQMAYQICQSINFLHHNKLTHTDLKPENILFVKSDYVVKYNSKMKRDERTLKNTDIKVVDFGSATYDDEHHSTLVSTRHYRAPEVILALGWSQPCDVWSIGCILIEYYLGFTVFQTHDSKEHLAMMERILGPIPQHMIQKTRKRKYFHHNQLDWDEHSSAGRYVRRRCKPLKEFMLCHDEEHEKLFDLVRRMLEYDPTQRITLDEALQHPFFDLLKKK
Dual specificity protein kinase CLK3, sequence (P49761 whole entry): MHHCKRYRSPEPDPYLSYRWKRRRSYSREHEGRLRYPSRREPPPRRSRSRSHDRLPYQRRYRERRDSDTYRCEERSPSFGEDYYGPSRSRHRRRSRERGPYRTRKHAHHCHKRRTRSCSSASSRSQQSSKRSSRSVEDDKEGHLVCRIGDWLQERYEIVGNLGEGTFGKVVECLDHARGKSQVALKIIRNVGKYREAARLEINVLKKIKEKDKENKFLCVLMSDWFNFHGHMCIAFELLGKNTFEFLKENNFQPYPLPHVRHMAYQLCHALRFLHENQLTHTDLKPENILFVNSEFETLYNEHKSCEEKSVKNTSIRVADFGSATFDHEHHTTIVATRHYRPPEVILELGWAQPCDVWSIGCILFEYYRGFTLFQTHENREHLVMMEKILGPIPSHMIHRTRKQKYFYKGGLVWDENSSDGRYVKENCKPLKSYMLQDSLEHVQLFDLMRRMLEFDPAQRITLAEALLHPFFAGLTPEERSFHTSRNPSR
Cyclin-dependent kinase 10, sequence (Q15131 whole entry): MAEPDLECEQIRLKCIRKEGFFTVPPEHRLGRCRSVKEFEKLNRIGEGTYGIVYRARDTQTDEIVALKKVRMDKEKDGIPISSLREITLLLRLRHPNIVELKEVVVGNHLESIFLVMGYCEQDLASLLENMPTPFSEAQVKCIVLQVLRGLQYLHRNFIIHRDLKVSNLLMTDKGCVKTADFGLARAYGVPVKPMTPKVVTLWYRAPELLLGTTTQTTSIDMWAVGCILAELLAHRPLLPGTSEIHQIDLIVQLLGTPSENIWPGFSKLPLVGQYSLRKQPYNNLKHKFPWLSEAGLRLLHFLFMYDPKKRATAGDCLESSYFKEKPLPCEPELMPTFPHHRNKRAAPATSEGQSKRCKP
Serine/threonine-protein kinase 24, sequence (Q9Y6E0 whole entry): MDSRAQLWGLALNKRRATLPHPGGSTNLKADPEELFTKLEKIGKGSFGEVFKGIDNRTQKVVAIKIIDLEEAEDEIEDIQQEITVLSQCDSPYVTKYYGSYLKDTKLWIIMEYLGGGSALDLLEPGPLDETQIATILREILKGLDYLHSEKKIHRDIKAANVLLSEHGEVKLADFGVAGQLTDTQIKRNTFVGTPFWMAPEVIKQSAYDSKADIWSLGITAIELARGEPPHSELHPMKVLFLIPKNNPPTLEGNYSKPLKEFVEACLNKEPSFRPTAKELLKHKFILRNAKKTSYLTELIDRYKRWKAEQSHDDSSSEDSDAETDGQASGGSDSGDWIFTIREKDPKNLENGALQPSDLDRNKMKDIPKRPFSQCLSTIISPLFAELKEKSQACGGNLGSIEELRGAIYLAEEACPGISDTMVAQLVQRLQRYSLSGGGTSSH
Activin receptor type-1-like, sequence (P37023 whole entry): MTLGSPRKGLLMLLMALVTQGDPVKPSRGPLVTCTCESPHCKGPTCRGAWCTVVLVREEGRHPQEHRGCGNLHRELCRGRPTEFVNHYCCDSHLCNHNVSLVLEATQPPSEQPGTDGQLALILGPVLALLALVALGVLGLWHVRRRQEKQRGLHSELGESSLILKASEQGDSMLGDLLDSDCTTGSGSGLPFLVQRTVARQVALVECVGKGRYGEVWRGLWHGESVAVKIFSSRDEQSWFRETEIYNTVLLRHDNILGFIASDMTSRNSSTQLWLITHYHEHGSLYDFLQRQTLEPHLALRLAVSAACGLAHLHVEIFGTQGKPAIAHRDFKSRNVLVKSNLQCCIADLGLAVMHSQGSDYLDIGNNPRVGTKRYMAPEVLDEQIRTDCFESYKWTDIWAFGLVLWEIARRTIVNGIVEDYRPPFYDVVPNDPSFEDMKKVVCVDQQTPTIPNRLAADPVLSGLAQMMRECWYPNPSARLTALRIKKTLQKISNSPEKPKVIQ
Nucleoside diphosphate kinase B, sequence (P22392 whole entry): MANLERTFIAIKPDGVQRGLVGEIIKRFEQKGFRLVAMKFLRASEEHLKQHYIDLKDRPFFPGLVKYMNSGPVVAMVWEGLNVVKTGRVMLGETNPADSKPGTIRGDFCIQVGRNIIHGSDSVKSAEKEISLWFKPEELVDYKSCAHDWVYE
Choline-phosphate cytidylyltransferase A, sequence (P49585 whole entry): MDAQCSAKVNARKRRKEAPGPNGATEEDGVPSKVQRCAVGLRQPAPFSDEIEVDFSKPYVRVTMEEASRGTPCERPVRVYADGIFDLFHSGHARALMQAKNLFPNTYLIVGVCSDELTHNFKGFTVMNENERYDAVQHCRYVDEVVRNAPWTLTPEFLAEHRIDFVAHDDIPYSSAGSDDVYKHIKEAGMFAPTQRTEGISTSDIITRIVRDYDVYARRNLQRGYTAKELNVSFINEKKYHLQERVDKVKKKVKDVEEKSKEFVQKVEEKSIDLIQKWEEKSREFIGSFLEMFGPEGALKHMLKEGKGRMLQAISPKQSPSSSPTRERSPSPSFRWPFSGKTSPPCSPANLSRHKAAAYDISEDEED
Serine/threonine-protein kinase 38, sequence (Q15208 whole entry): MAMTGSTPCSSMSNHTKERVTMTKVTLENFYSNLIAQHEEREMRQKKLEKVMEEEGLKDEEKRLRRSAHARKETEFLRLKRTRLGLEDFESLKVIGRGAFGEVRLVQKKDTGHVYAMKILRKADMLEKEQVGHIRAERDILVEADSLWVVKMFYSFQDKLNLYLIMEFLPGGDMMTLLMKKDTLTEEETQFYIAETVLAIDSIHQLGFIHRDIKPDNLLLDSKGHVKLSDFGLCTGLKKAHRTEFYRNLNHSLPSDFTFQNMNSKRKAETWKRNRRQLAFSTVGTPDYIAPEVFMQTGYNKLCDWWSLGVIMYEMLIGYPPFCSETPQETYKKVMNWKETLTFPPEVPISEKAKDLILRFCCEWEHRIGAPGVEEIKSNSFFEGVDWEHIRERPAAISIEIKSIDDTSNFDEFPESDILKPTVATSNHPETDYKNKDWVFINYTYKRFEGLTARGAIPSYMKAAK

With `COc1cc(Nc2ncc3c(n2)-c2ccc(Cl)cc2C(c2c(F)cccc2OC)=NC3)ccc1C(=O)O` [ALISERTIB], the Kd in test [1], in test [2], in test [3], in test [4], in test [5] and in test [6] was > 30 µM (inactive) each time.
Take `O=C(Nc1c[nH]nc1-c1nc2cc(CN3CCOCC3)ccc2[nH]1)NC1CC1` [AT-9283]: the Kd in test [7] was 0.015 µM (active); in test [8], > 30 µM (inactive); in test [2] it was 0.009 µM; in [9], > 30 µM (inactive); in test [10] it was > 30 µM (inactive); in [11], > 30 µM (inactive). Besides, the Kd in test [3], in [4], in test [12], in test [13] and in [6] was > 30 µM (inactive) each time.
In the case of `CCn1c(C(=O)N(C2CC2)C2CC2)cc2c3c(ncn3C)c(Nc3cc(C)n(C)n3)nc21` [BMS-911543], the Kd in [14], in test [7], in test [1], in [15], in test [16] and in test [8] was > 30 µM (inactive) each time. For the same compound, the Kd in test [9], in [4], in test [13] and in test [6] was > 30 µM (inactive) in each case.
Consider `C#Cc1cccc(Nc2ncnc3cc(OC)c(OCCCCCCC(=O)NO)cc23)c1` [CUDC-101], for which the Kd in test [14], in test [7], in test [16], in [8], in test [10] and in test [17] was > 30 µM (inactive) each time. For the same compound, the Kd is > 30 µM (inactive) in test [18]; > 30 µM (inactive) in [11]; > 30 µM (inactive) in [4]; > 30 µM (inactive) in test [13]; 0.142 µM (active) in test [5].
Consider `O=C(Nc1nc2cccc(-c3ccc(CN4CCS(=O)(=O)CC4)cc3)n2n1)C1CC1` [FILGOTINIB], for which the Kd in [1], in [16], in [8], in test [9], in [10] and in test [11] was > 30 µM (inactive) in each case. The Kd in test [4], in test [19] and in test [6] was > 30 µM (inactive) each time.
For `CNC(=O)c1nn(C)c2c1C(C)(C)Cc1cnc(Nc3ccc(N4CCN(C)CC4)cc3)nc1-2` [MILCICLIB], the Kd was > 30 µM (inactive) in test [1]; 0.018 µM (active) in test [16]; > 30 µM (inactive) in test [10]; > 30 µM (inactive) in test [18]; > 30 µM (inactive) in [11]; > 30 µM (inactive) in test [3]. The Kd in test [4], in test [13] and in test [5] was > 30 µM (inactive) throughout.
On to `FC(F)(F)c1ccc(/C=C/c2nc(COc3ccc(CCCCn4ccnn4)cc3)co2)cc1` [MUBRITINIB], for which the Kd is > 30 µM (inactive) in test [1]; > 30 µM (inactive) in test [16]; > 30 µM (inactive) in [8]; > 30 µM (inactive) in test [2]; 1.77 µM (active) in [11]; > 30 µM (inactive) in test [3]. The Kd in [4] and in test [5] was > 30 µM (inactive) throughout.
As to `COc1ncc(-c2ccc3nccc(-c4ccnnc4)c3c2)cc1NS(=O)(=O)c1ccc(F)cc1F` [OMIPALISIB], the Kd in test [1], in test [16], in test [8], in test [9], in test [18] and in test [11] was > 30 µM (inactive) throughout. Besides, the Kd in [4], in [12], in test [5] and in test [6] was > 30 µM (inactive) each time.
Consider `CCCCCCCCCCCCCCCCCCOP(=O)([O-])OC1CC[N+](C)(C)CC1` [PERIFOSINE], for which the Kd in test [10], in [19] and in test [6] was > 30 µM (inactive) throughout.
`CN1CCN(CCOc2cc(OC3CCOCC3)c3c(Nc4c(Cl)ccc5c4OCO5)ncnc3c2)CC1` [SARACATINIB]: the Kd in test [14], in test [1], in test [8], in test [2], in test [18] and in test [13] was > 30 µM (inactive) throughout. In test [5], the Kd was > 30 µM (inactive).
On to `Cc1cc(Nc2ncnc3ccc(NC4=NC(C)(C)CO4)cc23)ccc1Oc1ccn2ncnc2c1` [TUCATINIB], for which the Kd in [1], in test [16], in test [9], in [10], in test [18] and in test [11] was > 30 µM (inactive) in each case. Also, the Kd in test [3], in [19] and in test [6] was > 30 µM (inactive) in each case.
